# Measurements from patent US20200022963A1, “PHARMACEUTICAL COMPOSITION COMPRISING BETAHISTINE” (Otolanum AG, priority 2017, published 2020).
# Where two headings read alike, the source gives them in different places.
# What was measured:
# [1] = Pharmacokinetic profile after single oral, intranasal and intravenous betahistine in beagle dogs, Example 5; type: in vivo; conditions: beagle, dog, in vivo
# Procedure: In this study, the pharmacokinetic profile of betahistine was evaluated after a single dose administration of betahistine in male and female beagle dogs (age 5-7 months; weight of 5-11 kg, within a range of 3 kg for each sex) for three routes of administration: oral, intranasal, and intravenous.
# On Day 1 of the study, betahistine (BH) was delivered orally at a dose of 12 mg/kg, 24 mg/kg, or 48 mg/kg. Each treatment group comprised 8 animals (4 males and 4 females). For pharmacokinetic assessment, plasma samples were collected prior to dosing, and then at 5, 10, 20 and 30 min, 1, 2, 3, 6, 24 hours after dosing.
# On Day 8 of the study, the animals that received oral BH at a dose of 12 mg/kg were administered the test betahistine composition intranasally at a dose of 40 mg betahistine dihydrochloride; the animals that received oral BH at a dose of 24 mg/kg were administered the test betahistine composition intranasally at a dose of 80 mg betahistine dihydrochloride; and the animals that received oral BH at a dose of 48 mg/kg were administered the test betahistine composition intranasally at a dose of 120 mg betahistine dihydrochloride. The test betahistine composition was delivered intranasally in a single dose via an Aptar nasal spray pump device at a total dose level of 40, 80 and 120 mg of betahistine dihydrochloride. Plasma samples were collected prior to dosing, and then at 5, 10, 20 and 30 min, 1, 2, 3, 6, 24 hours after dosing.
# On Day 15 of the study, the animals that received oral BH at a dose of 12 mg/kg and the test betahistine composition intranasally at a dose of 40 mg betahistine dihydrochloride were administered a bolus intravenous injection of betahistine at a dose of 0.44 mg/kg. Plasma samples were collected prior to dosing, and then at 5, 10, 20 and 30 min, 1, 2, 3, 6, 24 hours after dosing.
# Betahistine 13CD3 dihydrochloride and 2-pyridylacetic acid-D4 hydrochloride were used as respective internal standards. The calibration range for betahistine was 0.05-250 ng/mL and for 2-PAA 2.00-3000 ng/mL using a plasma sample volume of 0.50 mL.
# For determination of betahistine, the method involved liquid-liquid extraction, for 2-PAA, the method involved protein precipitation. Plasma samples were prepared for betahistine by extraction under basic conditions with an organic solvent, then the organic phase was dried, reconstituted and transferred for LC/MS-MS analysis. […] Sample analysis was performed using reversed phase chromatography.
# [2] = cited from earlier work; for Tmax: 2-PAA after oral betahistine
# [3] = female, inhaled or intranasal, 6 mg/kg
# [4] = female, inhaled or intranasal, 13 mg/kg
# [5] = female, inhaled or intranasal, 17.7 mg/kg
# [6] = male, inhaled or intranasal, 5 mg/kg
# [7] = male, inhaled or intranasal, 9.8 mg/kg
# [8] = male, inhaled or intranasal, 15.8 mg/kg
smiles,measurement,setting,value
"O=C(O)Cc1ccccn1 [2-PAA, 2-pyridylacetic acid]",AUC(0-inf),[1]; [3],19000 ng·h/mL
same,AUC(0-t)/D,[1]; [3],3170 ± 812 hr*ng/mL/(mg/kg)
same,Cmax,[1]; [3],5570 ng/mL
same,Cmax/D,[1]; [3],928 ng/mL/(mg/kg)
same,Tmax,[1]; [3],0.75 h
same,half-life,[1]; [3],2.66 h
same,AUC(0-t),"[1]; female, inhaled or intranasal, 6 mg/kg, AUC(0-6)",14800 ng·h/mL
same,AUC(0-t),"[1]; female, inhaled or intranasal, 6 mg/kg, AUC(0-t)",19000 ng·h/mL
same,AUC(0-inf),[1]; [4],25300 ng·h/mL
same,AUC(0-t)/D,[1]; [4],1940 ± 838 hr*ng/mL/(mg/kg)
same,Cmax,[1]; [4],7030 ng/mL
same,Cmax/D,[1]; [4],541 ng/mL/(mg/kg)
same,Tmax,[1]; [4],1 h
same,half-life,[1]; [4],2.97 h
same,AUC(0-t),"[1]; female, inhaled or intranasal, 13 mg/kg, AUC(0-6)",19300 ng·h/mL
same,AUC(0-t),"[1]; female, inhaled or intranasal, 13 mg/kg, AUC(0-t)",25200 ng·h/mL
same,AUC(0-6),[1]; [5],10600 ng·h/mL
same,AUC(0-inf),[1]; [5],14100 ng·h/mL
same,AUC(0-t)/D,[1]; [5],790 ± 307 hr*ng/mL/(mg/kg)
same,Cmax,[1]; [5],3810 ng/mL
same,Cmax/D,[1]; [5],215 ng/mL/(mg/kg)
same,T1/2,[1]; [5],3.46 h
same,AUC(0-t),"[1]; female, inhaled or intranasal, 17.7 mg/kg, AUC(0-t)",14000 ng·h/mL
same,AUC(0-6),"[1]; female, iv, 0.44 mg/kg",1540 ± 101 ng·h/mL
same,AUC(0-inf),"[1]; female, iv, 0.44 mg/kg",1860 ± 188 ng·h/mL
same,AUC(0-t),"[1]; female, iv, 0.44 mg/kg",1830 ± 209 ng·h/mL
same,AUC(0-t)/D,"[1]; female, iv, 0.44 mg/kg",4160 ± 475 hr*ng/mL/(mg/kg)
same,Cmax,"[1]; female, iv, 0.44 mg/kg",722 ± 75.3 ng/mL
same,Cmax/D,"[1]; female, iv, 0.44 mg/kg",1640 ± 171 ng/mL/(mg/kg)
same,T1/2,"[1]; female, iv, 0.44 mg/kg",2.78 h
same,Tmax (median),"[1]; female, iv, 0.44 mg/kg",0.18 h
same,AUC(0-6),"[1]; female, po, 12 mg/kg",41300 ng·h/mL
same,AUC(0-int),"[1]; female, po, 12 mg/kg",57200 ± 11300 ng·h/mL
same,AUC(0-t),"[1]; female, po, 12 mg/kg",57200 ± 11300 ng·h/mL
same,AUC(0-t)/D,"[1]; female, po, 12 mg/kg",4760 ± 940 hr*ng/mL/(mg/kg)
same,Cmax,"[1]; female, po, 12 mg/kg",14500 ng/mL
same,Cmax/D,"[1]; female, po, 12 mg/kg",1210 ng/mL/(mg/kg)
same,T1/2,"[1]; female, po, 12 mg/kg",2.12 ± 0.110 h
same,AUC(0-6),"[1]; female, po, 24 mg/kg",69300 ng·h/mL
same,AUC(0-int),"[1]; female, po, 24 mg/kg",110000 ± 14300 ng·h/mL
same,AUC(0-t),"[1]; female, po, 24 mg/kg",110000 ± 14300 ng·h/mL
same,AUC(0-t)/D,"[1]; female, po, 24 mg/kg",4590 ± 594 hr*ng/mL/(mg/kg)
same,Cmax,"[1]; female, po, 24 mg/kg",21300 ng/mL
same,Cmax/D,"[1]; female, po, 24 mg/kg",885 ng/mL/(mg/kg)
same,T1/2,"[1]; female, po, 24 mg/kg",2.14 ± 0.176 h
same,Tmax (median),"[1]; female, po, 24 mg/kg",2 h
same,AUC(0-6),"[1]; female, po, 48 mg/kg",144000 ng·h/mL
same,AUC(0-int),"[1]; female, po, 48 mg/kg",208000 ± 35000 ng·h/mL
same,AUC(0-t),"[1]; female, po, 48 mg/kg",237000 ± 63500 ng·h/mL
same,AUC(0-t)/D,"[1]; female, po, 48 mg/kg",4930 ± 1320 hr*ng/mL/(mg/kg)
same,Cmax,"[1]; female, po, 48 mg/kg",37500 ng/mL
same,Cmax/D,"[1]; female, po, 48 mg/kg",781 ng/mL/(mg/kg)
same,T1/2,"[1]; female, po, 48 mg/kg",2.24 ± 0.170 h
same,Tmax (median),"[1]; female, po, 48 mg/kg",2 h
same,AUC(0-6),[1]; [6],9440 ng·h/mL
same,AUC(0-inf),[1]; [6],12200 ng·h/mL
same,AUC(0-t),[1]; [6],12200 ng·h/mL
same,AUC(0-t)/D,[1]; [6],2440 ± 2160 hr*ng/mL/(mg/kg)
same,Cmax,[1]; [6],3480 ng/mL
same,Cmax/D,[1]; [6],695 ng/mL/(mg/kg)
same,T1/2,[1]; [6],2.96 h
same,Tmax (median),[1]; [6],0.5 h
same,AUC(0-inf),[1]; [7],10400 ng·h/mL
same,AUC(0-t)/D,[1]; [7],1060 ± 368 hr*ng/mL/(mg/kg)
same,Cmax,[1]; [7],3320 ng/mL
same,Cmax/D,[1]; [7],339 ng/mL/(mg/kg)
same,Tmax,[1]; [7],1 h
same,half-life,[1]; [7],2.86 h
same,AUC(0-t),"[1]; male, inhaled or intranasal, 9.8 mg/kg, AUC(0-6)",8450 ng·h/mL
same,AUC(0-t),"[1]; male, inhaled or intranasal, 9.8 mg/kg, AUC(0-t)",10400 ng·h/mL
same,AUC(0-inf),[1]; [8],12800 ng·h/mL
same,AUC(0-t)/D,[1]; [8],806 ± 197 hr*ng/mL/(mg/kg)
same,Cmax,[1]; [8],3930 ng/mL
same,Cmax/D,[1]; [8],249 ng/mL/(mg/kg)
same,Tmax,[1]; [8],1 h
same,half-life,[1]; [8],2.87 h
same,AUC(0-t),"[1]; male, inhaled or intranasal, 15.8 mg/kg, AUC(0-6)",10200 ng·h/mL
same,AUC(0-t),"[1]; male, inhaled or intranasal, 15.8 mg/kg, AUC(0-t)",12700 ng·h/mL
same,AUC(0-6),"[1]; male, iv, 0.44 mg/kg",1450 ± 388 ng·h/mL
same,AUC(0-inf),"[1]; male, iv, 0.44 mg/kg",1760 ± 642 ng·h/mL
same,AUC(0-t),"[1]; male, iv, 0.44 mg/kg",1740 ± 641 ng·h/mL
same,AUC(0-t)/D,"[1]; male, iv, 0.44 mg/kg",3960 ± 1460 hr*ng/mL/(mg/kg)
same,Cmax,"[1]; male, iv, 0.44 mg/kg",736 ± 53.5 ng/mL
same,Cmax/D,"[1]; male, iv, 0.44 mg/kg",1670 ± 121 ng/mL/(mg/kg)
same,T1/2,"[1]; male, iv, 0.44 mg/kg",2.59 h
same,Tmax (median),"[1]; male, iv, 0.44 mg/kg",0.13 h
same,AUC(0-6),"[1]; male, po, 12 mg/kg",37300 ng·h/mL
same,AUC(0-int),"[1]; male, po, 12 mg/kg",50500 ± 21100 ng·h/mL
same,AUC(0-t),"[1]; male, po, 12 mg/kg",50500 ± 21100 ng·h/mL
same,AUC(0-t)/D,"[1]; male, po, 12 mg/kg",4210 ± 1760 hr*ng/mL/(mg/kg)
same,Cmax,"[1]; male, po, 12 mg/kg",12700 ng/mL
same,Cmax/D,"[1]; male, po, 12 mg/kg",1060 ng/mL/(mg/kg)
same,T1/2,"[1]; male, po, 12 mg/kg",2.21 ± 0.160 h
same,AUC(0-int),"[1]; male, po, 24 mg/kg",107000 ± 28200 ng·h/mL
same,AUC(0-t)/D,"[1]; male, po, 24 mg/kg",4460 ± 1180 hr*ng/mL/(mg/kg)
same,Cmax,"[1]; male, po, 24 mg/kg",26400 ng/mL
same,Cmax/D,"[1]; male, po, 24 mg/kg",1100 ng/mL/(mg/kg)
same,T1/2,"[1]; male, po, 24 mg/kg",2.04 ± 0.107 h
same,Tmax,"[1]; male, po, 24 mg/kg",1.5 h
same,AUC(0-t),"[1]; male, po, 24 mg/kg, AUC(0-6)",76400 ng·h/mL
same,AUC(0-t),"[1]; male, po, 24 mg/kg, AUC(0-t)",107000 ± 28200 ng·h/mL
same,AUC(0-6),"[1]; male, po, 48 mg/kg",178000 ng·h/mL
same,AUC(0-int),"[1]; male, po, 48 mg/kg",286000 ± 39300 ng·h/mL
same,AUC(0-t),"[1]; male, po, 48 mg/kg",286000 ± 39200 ng·h/mL
same,AUC(0-t)/D,"[1]; male, po, 48 mg/kg",5950 ± 817 hr*ng/mL/(mg/kg)
same,Cmax,"[1]; male, po, 48 mg/kg",50900 ng/mL
same,Cmax/D,"[1]; male, po, 48 mg/kg",1060 ng/mL/(mg/kg)
same,T1/2,"[1]; male, po, 48 mg/kg",2.10 ± 0.181 h
same,Tmax (median),"[1]; male, po, 48 mg/kg",2 h
same,peak concentration,"[2]; human, 2-PAA after oral betahistine 16 mg, Val et al.",522 ng/mL
same,Tmax,"[2]; human, Chen et al. (2003)",1 h
same,Tmax,"[2]; human, Moorthy et al.",1.5 h
same,pharmacological activity,[2]; metabolite formed by monoamine oxidase,no pharmacological activity
